Measured values taken from article PMC11845477, “Exploring the principles behind antibiotics with limited resistance” (Nature Communications, 2025).
Where a SMILES comes first, the peptide text is derived from it. Bridges are numbered along the chain shown (N, C = ends). [ ]: non-standard residue; d: D form. The star is where a group is joined. X1 = NC[C@@H](CC(=O)*)c1cccc(Cl)c1; Dab = NCC[C@H](N)C(=O)O; Dap = NC[C@H](N)C(=O)O

System: K. pneumoniae ATCC 10031 (SEN) and K. pneumoniae ATCC 700603 (MDR)
Assay: Adaptive laboratory evolution (ALE), relative MIC of evolved lines
Assay type: cell-based, Klebsiella pneumoniae
In short: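 Ten parallel populations per antibiotic–ancestor pair were evolved in MHB at 37 °C, starting near 50% growth-inhibiting drug. Every 72 h they were passaged into 0.5–2.5× increasing concentrations, keeping the highest-drug well with OD600 > 0.2.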

[1] = KP-MDR (Klebsiella pneumoniae ATCC 700603), evolved line 4
[2] = KP-MDR (Klebsiella pneumoniae ATCC 700603), evolved line 6
[3] = KP-MDR (Klebsiella pneumoniae ATCC 700603), evolved line 8
[4] = KP-MDR (Klebsiella pneumoniae ATCC 700603), evolved line 10
[5] = KP-SEN (Klebsiella pneumoniae ATCC 10031), evolved line 1
[6] = KP-SEN (Klebsiella pneumoniae ATCC 10031), evolved line 3
[7] = KP-SEN (Klebsiella pneumoniae ATCC 10031), evolved line 4
[8] = KP-SEN (Klebsiella pneumoniae ATCC 10031), evolved line 6
[9] = KP-SEN (Klebsiella pneumoniae ATCC 10031), evolved line 10

CC(C)C[C@@H]1NC(=O)[C@@H](Cc2ccccc2)NC(=O)[C@H](CCN)NC(=O)[C@@H](NC(=O)[C@H](CN)NC(=O)[C@@H](NC(=O)C[C@H](CN)c2cccc(Cl)c2)[C@@H](C)O)CCNC(=O)[C@H]([C@@H](C)O)NC(=O)[C@H](CCN)NC(=O)[C@H](CCN)NC1=O [SPR206] (X1-T[Dap][Dab][Dab][dF]L[Dab][Dab]T; lactam 3-C (inferred); N-terminus assumed)
Relative MIC (KP-MDR (Klebsiella pneumoniae ATCC 700603), evolved line 3): 512 | Relative MIC [1]: 256 | Relative MIC (log10) [1]: 2.408 log10 | Relative MIC (KP-MDR (Klebsiella pneumoniae ATCC 700603), evolved line 5): 256 | Relative MIC [2]: 512 | Relative MIC (log10) [2]: 2.709 log10 | Relative MIC (KP-MDR (Klebsiella pneumoniae ATCC 700603), evolved line 7): 512 | Relative MIC [3]: 1024 | Relative MIC (log10) [3]: 3.0103 log10 | Relative MIC (KP-MDR (Klebsiella pneumoniae ATCC 700603), evolved line 9): 1024 | Relative MIC [4]: 512 | Relative MIC (log10) [4]: 2.709 log10 | MIC of evolved line (KP-SEN (K. pneumoniae ATCC 10031), evolved line 1 of the given antibiotic): 1020 µg/mL | Relative MIC (KP-SEN (K. pneumoniae ATCC 10031), evolved line 1 vs ancestor): 2048 | MIC of evolved line (KP-SEN (K. pneumoniae ATCC 10031), evolved line 2 of the given antibiotic): 1 µg/mL | Relative MIC (KP-SEN (K. pneumoniae ATCC 10031), evolved line 2 vs ancestor): 2 | MIC of evolved line (KP-SEN (K. pneumoniae ATCC 10031), evolved line 3 of the given antibiotic): 1020 µg/mL | Relative MIC (KP-SEN (K. pneumoniae ATCC 10031), evolved line 3 vs ancestor): 2048 | MIC of evolved line (KP-SEN (K. pneumoniae ATCC 10031), evolved line 4 of the given antibiotic): 1020 µg/mL | Relative MIC (KP-SEN (K. pneumoniae ATCC 10031), evolved line 4 vs ancestor): 2048 | MIC of evolved line (KP-SEN (K. pneumoniae ATCC 10031), evolved line 6 of the given antibiotic): 1020 µg/mL | Relative MIC (KP-SEN (K. pneumoniae ATCC 10031), evolved line 6 vs ancestor): 2048 | MIC of evolved line (KP-SEN (K. pneumoniae ATCC 10031), evolved line 7 of the given antibiotic): 1 µg/mL | Relative MIC (KP-SEN (K. pneumoniae ATCC 10031), evolved line 7 vs ancestor): 2 | MIC of evolved line (KP-SEN (K. pneumoniae ATCC 10031), evolved line 8 of the given antibiotic): 1 µg/mL | Relative MIC (KP-SEN (K. pneumoniae ATCC 10031), evolved line 8 vs ancestor): 2 | MIC of evolved line (KP-SEN (K. pneumoniae ATCC 10031), evolved line 10 of the given antibiotic): 1020 µg/mL | Relative MIC (KP-SEN (K. pneumoniae ATCC 10031), evolved line 10 vs ancestor): 2048 | Relative MIC [5]: 2048 | Relative MIC (log10) [5]: 3.311 log10 | Relative MIC (KP-SEN (Klebsiella pneumoniae ATCC 10031), evolved line 2): 2 | Relative MIC [6]: 2048 | Relative MIC (log10) [6]: 3.311 log10 | Relative MIC [7]: 2048 | Relative MIC (log10) [7]: 3.311 log10 | Relative MIC [8]: 2048 | Relative MIC (log10) [8]: 3.311 log10 | Relative MIC (KP-SEN (Klebsiella pneumoniae ATCC 10031), evolved line 8): 2 | Relative MIC [9]: 2048 | Relative MIC (log10) [9]: 3.311 log10 | Relative MIC (KP-SEN, Klebsiella pneumoniae ATCC 10031, evolved line 7): 2 | Relative MIC (Klebsiella pneumoniae ATCC 10031 (KP-SEN), evolved line 1): 2048 | Relative MIC (Klebsiella pneumoniae ATCC 10031 (KP-SEN), evolved line 2): 2 | Relative MIC (Klebsiella pneumoniae ATCC 10031 (KP-SEN), evolved line 3): 2048 | Relative MIC (Klebsiella pneumoniae ATCC 10031 (KP-SEN), evolved line 4): 2048 | Relative MIC (Klebsiella pneumoniae ATCC 10031 (KP-SEN), evolved line 6): 2048 | Relative MIC (Klebsiella pneumoniae ATCC 10031 (KP-SEN), evolved line 7): 2 | Relative MIC (Klebsiella pneumoniae ATCC 10031 (KP-SEN), evolved line 8): 2 | Relative MIC (Klebsiella pneumoniae ATCC 10031 (KP-SEN), evolved line 10): 2048 | Relative MIC (Klebsiella pneumoniae ATCC 700603 (KP-MDR), evolved line 1): 256 | Relative MIC (Klebsiella pneumoniae ATCC 700603 (KP-MDR), evolved line 2): 1024 | Relative MIC (Klebsiella pneumoniae ATCC 700603 (KP-MDR), evolved line 3): 512 | Relative MIC (Klebsiella pneumoniae ATCC 700603 (KP-MDR), evolved line 4): 256 | Relative MIC (Klebsiella pneumoniae ATCC 700603 (KP-MDR), evolved line 5): 256 | Relative MIC (Klebsiella pneumoniae ATCC 700603 (KP-MDR), evolved line 6): 512 | Relative MIC (Klebsiella pneumoniae ATCC 700603 (KP-MDR), evolved line 7): 512 | Relative MIC (Klebsiella pneumoniae ATCC 700603 (KP-MDR), evolved line 8): 1024 | Relative MIC (Klebsiella pneumoniae ATCC 700603 (KP-MDR), evolved line 9): 1024 | Relative MIC (Klebsiella pneumoniae ATCC 700603 (KP-MDR), evolved line 10): 512
